Several values for one entry are separate records, joined by “and”; a condition that tells them apart may be missing. Equal entries are not always repeated.
Legend:
CatL = target: T1, CatL (Homo sapiens, UniProt P07711); test: Reversibility of covalent cathepsin inhibition (CatL, 60 min incubation); type: biochemical; conditions: 1 nM CatL, 1–80 nM inhibitor, 37 °C
T1 construct: made in house
Excerpt: We observed no increase in relative inhibition over time, thus concluding that the covalent bond between cathepsins and inhibitors is reversible.

SARS-CoV-2 [1] = test: Cytopathic effect inhibition assay in VERO-CCL81 cells; type: cell-based; conditions: for CPE inhibition (%): VERO CCL81, two experiments, listed as S-Calpepin
[2] = Anti-viral experiment with Golden Syrian hamsters: body weight; type: in vivo, Golden Syrian hamsters (Mesocricetus auratus); conditions: for body weight, individual data: individual animals
SARS-CoV-2 [3] = test: Viral loading determination via RT-qPCR in LC-HK2 cells; type: cell-based; conditions: for Viral titer (% control): LC-HK2, RT-qPCR

T1 sequence (P07711 114-333): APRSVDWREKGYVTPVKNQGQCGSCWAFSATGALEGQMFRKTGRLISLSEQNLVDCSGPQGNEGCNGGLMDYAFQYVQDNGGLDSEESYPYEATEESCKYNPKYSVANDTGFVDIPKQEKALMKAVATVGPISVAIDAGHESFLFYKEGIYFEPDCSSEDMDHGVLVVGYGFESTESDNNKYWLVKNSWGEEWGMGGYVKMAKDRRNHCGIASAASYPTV

CCCC[C@H](NC(=O)[C@H](CC(C)C)NC(=O)OCc1ccccc1)C(O)S(=O)(=O)[O-].[Na+] (stereo partly shown) [S-Calpeptin]
reversibility of covalent bond to cathepsin (CatL): reversible
CPE inhibition (%) (SARS-CoV-2 [1]; 0.0781 μM): 0% and 0.33%
CPE inhibition (%) (SARS-CoV-2 [1]; 0.625 μM): 38.01% and 20.29%
CPE inhibition (%) (SARS-CoV-2 [1]; 1.25 μM): 52.68% and 61.52%
CPE inhibition (%) (SARS-CoV-2 [1]; 2.5 μM): 60.88% and 68.39%
CPE inhibition (%) (SARS-CoV-2 [1]; 5 μM): 63.97% and 88.53%
CPE inhibition (%) (SARS-CoV-2 [1]; 10 μM): 67.47% and 80.91%
EC50 (SARS-CoV-2 [1]; VERO-CCL81, CellTiter-Glo, 48 h post-infection, read-out: CPE inhibition EC50): 700 nM
body weight, individual data ([2]; G1 SARS-CoV-2 infected, 1 mg/kg s.c. daily, Day 1, 1 mg/kg): 142 g and 136 g and 131 g and 130 g and 132 g and 133 g and 125 g and 128 g and 123 g and 114 g and 117 g and 111 g
body weight, individual data ([2]; G1 SARS-CoV-2 infected, 1 mg/kg s.c. daily, Day 2, 1 mg/kg): 139 g and 141 g and 136 g and 131 g and 128 g and 132 g and 123 g and 127 g and 120 g and 111 g and 116 g and 108 g
body weight, individual data ([2]; G1 SARS-CoV-2 infected, 1 mg/kg s.c. daily, Day 3, 1 mg/kg): 138 g and 133 g and 132 g and 125 g and 128 g and 131 g and 123 g and 122 g and 126 g and 118 g and 121 g and 111 g and 115 g and 106 g
body weight, individual data ([2]; G1 SARS-CoV-2 infected, 1 mg/kg s.c. daily, Day 4, 1 mg/kg): 126 g and 130 g and 121 g and 120 g and 118 g and 123 g and 111 g and 116 g and 104 g
body weight, individual data ([2]; G1 SARS-CoV-2 infected, 1 mg/kg s.c. daily, Day 5, 1 mg/kg): 126 g and 129 g and 121 g and 119 g and 118 g and 111 g and 117 g and 104 g
body weight, individual data ([2]; G1 SARS-CoV-2 infected, 1 mg/kg s.c. daily, Day 6, 1 mg/kg): 115 g and 118 g and 111 g and 116 g and 105 g
body weight, individual data ([2]; G1 SARS-CoV-2 infected, 1 mg/kg s.c. daily, Day 7, 1 mg/kg): 117 g and 121 g and 112 g and 118 g and 106 g
body weight, individual data ([2]; G4 mock infected (so in the source), Day 1): 155 g and 138 g and 130 g
body weight, individual data ([2]; G4 mock infected (so in the source), Day 2): 156 g and 137 g and 130 g
body weight, individual data ([2]; G4 mock infected (so in the source), Day 3): 157 g and 138 g and 131 g
body weight, individual data ([2]; G4 mock infected (so in the source), Day 4): 158 g and 140 g and 130 g
body weight, individual data ([2]; G4 mock infected (so in the source), Day 5): 159 g and 139 g and 131 g
body weight, individual data ([2]; G4 mock infected (so in the source), Day 6): 160 g and 139 g and 130 g
body weight, individual data ([2]; G4 mock infected (so in the source), Day 7): 162 g and 141 g and 131 g
body weight, average ([2]; SARS-CoV-2 infected hamsters, 1 mg/kg s.c. daily, day 1): 96.7382 %, relative to day 0
body weight, average ([2]; SARS-CoV-2 infected hamsters, 1 mg/kg s.c. daily, day 2): 95.2969 %, relative to day 0
body weight, average ([2]; SARS-CoV-2 infected hamsters, 1 mg/kg s.c. daily, day 3): 94.3407 %, relative to day 0
body weight, average ([2]; SARS-CoV-2 infected hamsters, 1 mg/kg s.c. daily, day 4): 93.4383 %, relative to day 0
body weight, average ([2]; SARS-CoV-2 infected hamsters, 1 mg/kg s.c. daily, day 5): 93.2155 %, relative to day 0
body weight, average ([2]; SARS-CoV-2 infected hamsters, 1 mg/kg s.c. daily, day 6): 93.1372 %, relative to day 0
body weight, average ([2]; SARS-CoV-2 infected hamsters, 1 mg/kg s.c. daily, day 7): 94.5983 %, relative to day 0
body weight, average ([2]; mock infected hamsters, 1 mg/kg s.c. daily, day 1): 97.4975 %, relative to day 0
body weight, average ([2]; mock infected hamsters, 1 mg/kg s.c. daily, day 2): 98.3232 %, relative to day 0
body weight, average ([2]; mock infected hamsters, 1 mg/kg s.c. daily, day 3): 98.7966 %, relative to day 0
body weight, average ([2]; mock infected hamsters, 1 mg/kg s.c. daily, day 4): 99.2826 %, relative to day 0
body weight, average ([2]; mock infected hamsters, 1 mg/kg s.c. daily, day 5): 100.017 %, relative to day 0
body weight, average ([2]; mock infected hamsters, 1 mg/kg s.c. daily, day 6): 100.959 %, relative to day 0
body weight, average ([2]; mock infected hamsters, 1 mg/kg s.c. daily, day 7): 101.896 %, relative to day 0
EC50 (SARS-CoV-2 [3]; LC-HK2, RT-qPCR, 72 h post-infection, read-out: Viral titer EC50): 630 nM
Viral titer (% control) (SARS-CoV-2 [3]; 0.0006 μM): 100 % control
Viral titer (% control) (SARS-CoV-2 [3]; 0.0012 μM): 100 % control
Viral titer (% control) (SARS-CoV-2 [3]; 0.0024 μM): 100 % control
Viral titer (% control) (SARS-CoV-2 [3]; 0.0049 μM): 100 % control
Viral titer (% control) (SARS-CoV-2 [3]; 0.0098 μM): 100 % control
Viral titer (% control) (SARS-CoV-2 [3]; 0.0195 μM): 100 % control
Viral titer (% control) (SARS-CoV-2 [3]; 0.0391 μM): 100 % control
Viral titer (% control) (SARS-CoV-2 [3]; 0.0781 μM): 100 % control
Viral titer (% control) (SARS-CoV-2 [3]; 0.1563 μM): 100 % control
Viral titer (% control) (SARS-CoV-2 [3]; 0.3125 μM, listed as S-Calpepin): 56.49 % control and 49.6 % control
Viral titer (% control) (SARS-CoV-2 [3]; 0.625 μM, listed as S-Calpepin): 69.04 % control and 44.94 % control
Viral titer (% control) (SARS-CoV-2 [3]; 1.25 μM, listed as S-Calpepin): 38.67 % control and 33.45 % control

— paper PMC10584882 (Communications Biology, 2023)
